The text below walks through data of US8048868B1, “Method of preventing preeclampsia” (Scott & White Healthcare, priority 2008, dated 2011).

The test system of one series is normal pregnant rats. The series is described as follows: Normal pregnant rats given RBG daily from day 4 of pregnancy (NPR). In kind it is in vivo, Sprague-Dawley rats. Here is the method: Female Sprague-Dawley rats (200-250 g) were obtained from Charles River Laboratories (Wilmington, Mass.) and housed in the animal facility. They were allowed free access to standard rat chow and tap water. Animal care was conducted in accordance with institutional guidelines. The rats were acclimatized for 1 week prior to being studied. The animals were mated with male Sprague-Dawley rats (Charles River Laboratories, Wilmington, Mass.) weighing 275-300 g. Pregnancy was confirmed by the presence of vaginal plugs or by examination of vaginal smears. The pregnant females were then isolated from the males. Four groups of animals were studied: normal pregnant (NP) rats given tap water ad libitum (n=10), pregnant DOCA+saline (PDS) animals (n=8) injected initially with 12.5 mg of DOCA in a depot form intraperitoneally followed by 6.5 mg on a weekly basis and whose drinking water was replaced with 0.9% saline; […] (NPR rats, n=5); and, pregnant DOCA+saline+RBG (PDSR) animals (n=8) given daily injections of RBG in a dose of 30 micrograms per kilogram body weight per day intraperitoneally beginning on day 4 of pregnancy in addition to treatment with DOCA+saline. RBG was obtained from ChromaDex (Santa Ana, Calif.) and dissolved in dimethyl sulfoxide (DMSO). Systolic blood pressure (BP) was measured by the tail-cuff method (IITC Inc., LifeScience Instruments, model 59). For each BP value reported, 3-4 readings were performed when the BP had stabilized and the mean of these values was calculated. The measurements were obtained at the following time points: prior to pregnancy (baseline), at 1-4 days, 4-7 days, 6-9 days, 8-11 days, 11-14 days, 13-16 days, 15-18 days and 18-21 days of pregnancy. At 18-21 days of pregnancy, 24-hr urine was collected in the absence of food (this was done to eliminate contamination of the urinary protein determination by any fallen food particles). Each animal was housed separately in a metabolic cage. The rats were sacrificed at 18-21 days of pregnancy and blood was drawn. The pups were counted and inspected for malformations. The 24-hr protein excretion was measured using the pyrogallol red method (Total protein Kit, Micro Pyrogallol Red Method, Sigma).
Creatinine was measured in the blood and urine on a Nova 16 Analyzer (Waltham, Mass.) and the creatinine clearance was calculated. Hematocrit was measured using a StatSpin MP Multipurpose Centrifuge (Norwood, Mass.). Statistics were performed using analysis of variance (ANOVA) and Tukey's post-hoc test.
Blood pressure results for four groups of experimental animals obtained at various time periods during gestation: NP=normal pregnant rats; PDS=pregnant animals given saline in their drinking water and injected weekly with DOCA; PDSR=rats in whom resibufogenin 30 μg/kg/day) was injected at the onset of pregnancy along with DOCA and the provision of saline as drinking water; NPR=normal pregnant animals injected daily with resibufogenin 30 μg/kg/day. See text for statistical analyses.

The subject of series [1] is pregnant DOCA+saline (PDS) rats. The series is described as follows: Rat model of preeclampsia (pregnant DOCA+saline rats), RBG given daily from day 4 of pregnancy. In kind it is in vivo, Sprague-Dawley rats. The text has this: In an attempt to reproduce this situation, a rat model was developed and employed in which pregnant animals are given weekly injections of the powerful mineralocorticoid desoxycorticosterone acetate (DOCA) and whose drinking water is replaced with saline Ianosi-Irimie M, Vu H V, Whitbred J M, et al. A rat model of preeclampsia. Clin Exp Hypertens 2005; 8:605-17. These animals develop characteristic findings of human preeclampsia including hypertension, proteinuria, excessive body weight gain and IUGR. In addition, associated with their experimental condition, they excrete increased amounts of the bufodienolide, marinobufagenin (MBG) Vu H V, Ianosi-Irimie M R, Pridjian C A, et al. Involvement of marinobufagenin in a rat model of human preeclampsia. Am J NephroI 2005; 25:520-8. MBG is a cardiotonic steroid which has vasoconstrictor, natriuretic and cardiac inotropic properties Schoner W. Endogenous cardiac glycosides, a new class of steroid hormones. Eur J Biochem 2002; 269:2440-8. Furthermore, the increased urinary excretion of this compound precedes the development of hypertension and proteinuria Vu H V, Ianosi-Irimie M R, Pridjian C A, et al. Involvement of marinobufagenin in a rat model of human preeclampsia. Am J NephroI 2005; 25:520-8. […] Therefore, the purpose of the study which is presented in this communication was to determine if intervention early in pregnancy would have more beneficial effects on IUGR than the administration of RBG at a time when the rodent disorder was already established.
Female Sprague-Dawley rats (200-250 g) were obtained from Charles River Laboratories (Wilmington, Mass.) and housed in the animal facility. They were allowed free access to standard rat chow and tap water. Animal care was conducted in accordance with institutional guidelines. The rats were acclimatized for 1 week prior to being studied. The animals were mated with male Sprague-Dawley rats (Charles River Laboratories, Wilmington, Mass.) weighing 275-300 g. Pregnancy was confirmed by the presence of vaginal plugs or by examination of vaginal smears. The pregnant females were then isolated from the males. Four groups of animals were studied: normal pregnant (NP) rats given tap water ad libitum (n=10), pregnant DOCA+saline (PDS) animals (n=8) injected initially with 12.5 mg of DOCA in a depot form intraperitoneally followed by 6.5 mg on a weekly basis and whose drinking water was replaced with 0.9% saline; normal pregnant rats given RBG by daily injection in a dose of 30 micrograms per kilogram body weight per day intraperitoneally beginning on day 4 of pregnancy (NPR rats, n=5); and, pregnant DOCA+saline+RBG (PDSR) animals (n=8) given daily injections of RBG in a dose of 30 micrograms per kilogram body weight per day intraperitoneally beginning on day 4 of pregnancy in addition to treatment with DOCA+saline. RBG was obtained from ChromaDex (Santa Ana, Calif.) and dissolved in dimethyl sulfoxide (DMSO). Systolic blood pressure (BP) was measured by the tail-cuff method (IITC Inc., LifeScience Instruments, model 59). For each BP value reported, 3-4 readings were performed when the BP had stabilized and the mean of these values was calculated. The measurements were obtained at the following time points: prior to pregnancy (baseline), at 1-4 days, 4-7 days, 6-9 days, 8-11 days, 11-14 days, 13-16 days, 15-18 days and 18-21 days of pregnancy. At 18-21 days of pregnancy, 24-hr urine was collected in the absence of food (this was done to eliminate contamination of the urinary protein determination by any fallen food particles). Each animal was housed separately in a metabolic cage. The rats were sacrificed at 18-21 days of pregnancy and blood was drawn. The pups were counted and inspected for malformations. The 24-hr protein excretion was measured using the pyrogallol red method (Total protein Kit, Micro Pyrogallol Red Method, Sigma). […]

Series [2] concerns "preeclamptic (PDS)" rats. The note with it: RBG given when the disorder was established (Vu et al. 2006); cited from earlier work.
Series [3] deals with pregnant DOCA+saline (PDS) rats. The series is described as follows: Rat model of preeclampsia (pregnant DOCA+saline rats), RBG given daily from day 4 of pregnancy. In kind it is in vivo, Sprague-Dawley rats. The note with it: RBG 15 μg/kg/min daily given to PDS rats (data not shown).
Setting [4] is: NPR rats, RBG 30 micrograms/kg/day i.p., 18-21 days.
Where [5] appears, read: PDSR rats, RBG 30 micrograms/kg/day i.p., 18-21 days.

For the compound `C[C@]12CC[C@H](O)C[C@H]1CC[C@@H]1[C@@H]2CC[C@]2(C)[C@@H](c3ccc(=O)oc3)C[C@H]3O[C@]132` [RBG, resibufogenin], the “Mean systolic blood pressure (tail-cuff), baseline” value in the series on normal pregnant rats (NPR rats (n=5), prior to pregnancy (baseline)) turned out to be 104±5 mmHg; in series [1] (PDSR rats (n=8), prior to pregnancy (baseline)), 105±5 mmHg. The “CCR (creatinine clearance)” value in the series with normal pregnant rats (setting [4]) stood at 1.20 ± 0.49 mL/min; in series [1] (setting [5]) it was 1.07 ± 0.29 mL/min. The Hematocrit with normal pregnant rats (setting [4]) is listed as 0.38±0.01; in series [1] (setting [5]), 0.33±0.02. In addition, the “Protein Excretion (24-hr urine)” value is 4.6±0.8 mg/24 hr in the series on normal pregnant rats (setting [4]) and 2.5±1.1 mg/24 hr in series [1] (setting [5]). In addition, the “Pups (average number of pups)” value worked out at 11.8±1.6 in the series on normal pregnant rats (NPR rats, RBG 30 micrograms/kg/day i.p., sacrifice at 18-21 days) and 14.6±1.3 in series [1] (PDSR rats, RBG 30 micrograms/kg/day i.p., sacrifice at 18-21 days). In addition, the “Mean systolic blood pressure (tail-cuff), final” value is on record as 125±6 mmHg in the series with normal pregnant rats (NPR rats: RBG 30 micrograms/kg/day i.p. from day 4, 18-21 days of pregnancy) and 87±6 mmHg in series [1] (PDSR rats: DOCA+saline + RBG 30 micrograms/kg/day i.p. from day 4, 18-21 days of pregnancy). Further, in the series on normal pregnant rats (RBG 15 μg/kg/min daily, animal group not clearly stated (data not shown)), the “Effect on blood pressure at lower dose” value was “did increase blood pressure”. The “Agonist effect on blood pressure” value with normal pregnant rats (given alone to normal pregnant animals) is given as “causes modest hypertension”. Moreover, the “Prevention of hypertension, proteinuria and intrauterine growth restriction (summary)” value in series [1] (early administration in gestation) is “prevent hypertension, proteinuria and intrauterine growth restriction”. For the same compound, in series [2], the Hypertension and proteinuria result is “could be corrected”. For the same compound, in series [2], the IUGR result is reported as “trend toward improvement”. Besides, the “Prevention of hypertension at lower dose” value in series [3] is on record as “failed to prevent hypertension”.
